Experimental findings from a melting point compilation (Tetko et al.; mined from patent text by program, amines drawn as free bases though some values may be those of a salt) are described below.

SMILES strings stand for the structures.

What is called melting point is the temperature, or range, at which the solid turns liquid. In the case of `NC(=O)c1ccnc(CCCCCCOCCCCCCBr)c1`, the melting point lay in the range of 73 to 75 °C.
Compound `O=C(NCc1ccc(F)cc1)c1nc2n(c(=O)c1OCc1ccccc1)CCN2c1ccccc1` came in with a melting point of 199 to 200 °C.
The value for `CCN(CC)Cc1ccc(-c2ccc3c(Nc4cc(OC)c(Cl)cc4Cl)c(C#N)cnc3c2)cc1` was 191 to 195 °C; that for `O=[N+]([O-])c1ccc(Oc2ccccc2)c(Cl)c1NCc1ccc(Cl)cc1` was 75 to 76 °C; that for `NS(=O)(=O)c1cccc(-c2cc(-c3nc(-c4ccc(F)c(F)c4)cc(C(F)(F)F)n3)ccn2)c1` was 234 °C.
The value for `OCC1OC(c2ccc(Cl)c(Cc3ccc(-c4ccc(F)nc4)s3)c2)C(O)C(O)C1O` (stereo not drawn) was 131 to 134 °C; that for `CCC1CCCN(C(=O)C2Cc3ccccc3N2c2ccc(=O)n(C)n2)C1` (stereo not drawn) was 150 to 154 °C.
Compound `Cc1ccc(-c2c(NS(=O)(=O)c3ccc(C(C)(C)C)cc3)ncnc2OCCOc2ccc(C(C)O)cc2)cc1` (stereo not drawn) displayed a melting point of 176 to 178 °C.
The value for `CCOC(=O)CCCCn1c(=O)[nH]c2ccsc2c1=O` was 116 to 117 °C.
The value for `O=C(O)CCCNC(=O)c1ccccc1NC(=O)c1cc([N+](=O)[O-])ccc1O` was 239 to 241 °C.
For `COC1(O)C=C(O)C(C(O)C(=O)c2ccccc2)=CC1` (stereo not drawn), the melting point lay in the range of 192 to 193 °C.
`CC1(C)Oc2ccc(C#N)cc2[C@@H](NC2=CC(=O)OC2)[C@@H]1O` (relative stereo) came in with a melting point of 182 °C.
The value for `COc1ccc2c(c1)/C(=C/C#N)C(c1ccccc1)C2` (stereo not drawn) was 112 to 114 °C; that for `COc1ccc(C(C#Cc2cccc(-c3nnc(C)o3)c2)CC(=O)O)cc1OC1CCCC1` (racemic) was 110 to 114 °C.
Compound `CCCOc1c(OC)cc(C(=O)Cl)cc1[N+](=O)[O-]` displayed a melting point of 180 to 184 °C.
The value for `CCCc1nc2c(C)ccc(OCc3ccccc3)c2[nH]1` was 192 to 194 °C.
The value for `CC(=O)Nc1ccc2[nH]c(C=CC(=O)O)cc2c1` was 238 to 239 °C; that for `Cc1c(C(C)O)ssc1=S` (stereo not drawn) was 79 to 80 °C.
Take `O=C(C1CCC1)N1CCSCC1`: the melting point is 39 to 40 °C.
The value for `C=Cc1c(CS)cnc(C)c1O` was 130 to 140 °C; that for `CC(C)(C)c1cc(CN2CC(N(O)C(=O)Oc3ccccc3)C2)cc(C(C)(C)C)c1O` was 161 to 163 °C; that for `NC(=O)N(c1ccc(-c2c(CCO)sc3ncnc(N)c23)cc1)c1cccc(C(F)(F)F)c1` was 155 to 158 °C.
Turning to `CS(=O)(=O)c1cc(Cl)c2[nH]cc(CC(N)C(=O)O)c2c1` (stereo not drawn), the melting point fell in the range of 292 to 294 °C.
The value for `Cc1nncn1-c1ccc(Cl)cc1C(=O)O` was 252 to 254 °C; that for `Cc1ccc2c(c1)OC(CCO)C(=O)N2Cc1cccc(Cl)c1` (stereo not drawn) was 72 to 74 °C; that for `O=C(O)[C@H](Cc1ccc(C(F)(F)F)cc1)[C@H](O)c1ccc(F)cc1` (racemic) was 111 to 112 °C.
The value for `Cc1ccc(Sc2ccnc(Cl)n2)cc1` was 80 to 81 °C; that for `C#CCN(c1c(Br)cc(Br)cc1Br)[N+](=O)[O-]` was 58 to 58.5 °C; that for `CSc1ncc(Cl)cc1C#N` was 147 to 149 °C.
The value for `NC(=S)Cc1cccc(-c2nc(=O)c3ccccc3s2)n1` was 257 °C; that for `NC(=O)CC(=O)c1cn2c3c(cccc13)CCC2` was 200 to 201 °C.
For `O=CNc1nc(C(=NOC(=O)C(Cl)Cl)C(=O)O)ns1`, the melting point was 123 °C.
The value for `COc1ccc(C(=O)Nc2cccc(C(=O)O)c2)c2c1OCCO2` was 283 to 284 °C.
The value for `C=CC(=O)NCc1ccc(Cl)cc1` was 103 to 104 °C; that for `O=c1c2ccccc2nc2n1CCc1c-2[nH]c2ccc(Cl)cc12` was 310 to 312 °C; that for `CCCn1ncc2c(=O)[nH]c(-c3cc(C(=O)N4CCN(C)CC4)ccc3OCC)nc21` was 124 to 127 °C.
`O=c1c2c(O)cc(OCC3CS3)cc2oc2ccc3ccccc3c12` (stereo not drawn) showed a melting point of 167 to 168 °C.
In turn, `CSc1ncc2cc(C)c(N)nc2n1` showed a melting point of 268 to 270 °C.
The value for `Cc1nnsc1C(=O)c1[nH]c2ccc(Cl)cc2c1CC(=O)O` was 229 to 230 °C.
The value for `CCCOC1CCC(=O)N1` (stereo not drawn) was 52 to 54 °C; that for `Nc1ccc2c(ccn2O)n1` was 227 to 228 °C; that for `CCC(CN1CCCCC1)C(=O)c1cc(-c2ccccc2)no1` (stereo not drawn) was 83 to 84 °C.
The value for `COc1cc(OC)nc(NC(=O)NS(=O)(=O)c2c(C(F)F)nsc2OCC(F)(F)F)n1` was 200 to 202 °C; that for `C=CCc1[nH]cc2c1-c1ccc(Cl)cc1C(c1ccccc1F)=NC2` was 212 to 214 °C.
Compound `O=CC(=O)c1ccc(Oc2cccc(C(F)(F)F)c2)cc1` yielded a melting point of 73 to 80 °C.
The value for `COC(=O)c1cc(C(C)C)c(OS(=O)(=O)NC(=O)Cc2c(C(C)C)cc(C(C)C)cc2C(C)C)c(C(C)C)c1` was 144 to 146 °C; that for `CN(C)CCNC(=O)[C@H]1C[C@H](NC(=O)Cc2ccccc2)c2c(Cl)cc(Cl)cc2N1` (relative stereo) was 158 to 159 °C.
Take `N#Cc1sc(C#N)c(Br)c1Br`: the melting point is 138 to 139 °C.
The value for `CCc1ccc2ncc(CO)c(OC(C)C)c2c1` was 43 to 46 °C.
Regarding `Cc1c(Cl)cccc1N=C1NCCN1C(=O)c1ccc(C#N)cc1`, the melting point lay in the range of 224 to 228 °C.
The value for `O=C(O)C1=Cc2cc(Cl)c(Sc3ccccc3)cc2OC1C(F)(F)F` (stereo not drawn) was 272 to 274 °C; that for `CCCOc1ccc2c(c1)C(N(C)S(C)(=O)=O)=CC(C)(C)O2` was 93 to 95 °C.
The value for `CCCCCC(C(=O)O)c1cccc(Oc2ccccc2C)c1O` (stereo not drawn) was 113 to 114 °C; that for `COC(=O)c1cc(N)c(Cl)c(N)c1` was 110 to 120 °C.
For `CC(C)Cn1c(=O)n(C)c(=O)c2cnc(N)nc21`, the melting point was in the range of 249 to 250 °C.
The value for `CC(C)(C)OC(=O)COc1ccc(NC(=O)NC(=O)c2ccc(C#N)nc2)cc1` was 220 to 222 °C.
For the compound `CC(C)(C)OC(=O)N1CCN(c2cncc(Cl)n2)CC1`, the melting point worked out at 108 °C.
The value for `CC(O)(Cc1cnc(Cl)s1)c1ccc(Cl)cc1Cl` (stereo not drawn) was 164 °C.
The value for `CCOC(=O)C(=NOC)c1nc(Cl)cc(NC=O)n1` was 116 to 119 °C; that for `COc1ccccc1N1CCN(CCCn2c(=O)[nH]c3sccc3c2=O)CC1` was 217 to 218 °C.
In turn, `CC(C)Oc1cc(CCCOc2nn(Cc3ccccc3)cc2CC(=O)O)n(Cc2ccc(Cl)cc2OC(C)C)n1` showed a melting point of 113 to 115 °C.
The value for `O=Cc1ccc(-c2ccc(O)cc2)c2ccsc12` was 203 to 204 °C.
The value for `COC(=O)NC(=O)C(Cc1ccc(OCCc2nc(-c3ccccc3)oc2C)cc1)C(=O)OC` (stereo not drawn) was 120 °C.
The value for `CCC(O)(c1ccc(F)cc1)c1ccc(OCc2cccc(C)n2)cc1` (stereo not drawn) was 103 to 104 °C.
Regarding `O=C(Cc1ccc(OCc2ccccc2)cc1)P(=O)(O)O`, the melting point was 112 to 113 °C.
The value for `CCC1C(=O)Oc2c(Oc3ccccc3Cl)cccc21` (stereo not drawn) was 78 to 79 °C; that for `Cc1ccc(C)c(C2C(=O)CC(C)C2=O)c1` (stereo not drawn) was 138 to 140 °C; that for `Cc1nc2c(-c3cccc(N4CCN(CCO)CC4)c3)cnn2c(N)c1-c1ccc(F)c(F)c1` was 172 to 174 °C.
The value for `NC(=O)C(O)C1OC(n2cnc3c(N)ncnc32)C(O)C1O` (stereo not drawn) was 220 to 222 °C; that for `Oc1ccc(-c2nsc3ccccc23)c(Cl)c1Cl` was 224 to 226 °C.
The value for `S=C1CNCCN1Cc1ccccc1` was 70 to 73 °C.
For the compound `COc1ccc(Cn2c(O)nc3c(N)nc4ccccc4c32)cc1`, the melting point was greater than 260 °C.
The value for `O=C1NCc2cc(-c3cnc4[nH]c(=O)n(CC5CCCCC5)c4n3)ccc21` was 337 to 339 °C; that for `CC(C)(C)OC(=O)NCCNC(=O)c1ncsc1-c1cccc(I)c1` was 111 to 112 °C.
As for `c1ccc(Cn2ncc3c(NCC4CCCCC4)c4ccccc4nc32)cc1`, the melting point lay in the range of 254 to 256 °C.
The value for `CS(=O)(=O)NC[C@@H]1CN(c2ccc(N3CCC(=CC#N)CC3)c(F)c2)C(=O)O1` was 235 to 237 °C.
The value for `CC1(C)OC(=O)Nc2ccc(-c3cc(F)cc(Br)c3)cc21` was 182 to 183 °C.
`CCOC(=O)c1cc(OCc2ccccc2)ccc1OCC(F)(F)F` yielded a melting point of 145 to 146 °C.
The value for `CC=Cc1cnc(C2=NC(C)(C(C)C)C(=O)N2)c(C(=O)O)c1` (stereo not drawn) was 175 to 176 °C; that for `COc1ccc(-n2nc3c(cc2=O)CCSc2sc(C)cc2-3)cc1` was 145 to 146 °C.
The value for `FC(F)(F)Oc1ccc2nc(-c3ccc(Cl)cc3)[nH]c2c1` was 190 to 192 °C.
The value for `CC(C)(C)OC(=O)NC[C@H]1CN(c2ccc3c(c2)CC(C(C)(C)C)N3)C(=O)O1` (stereo partly drawn) was 153 to 160 °C; that for `O=c1ccc(-c2ccncn2)c[nH]1` was greater than 250 °C.
Consider `N#Cc1ccccc1-c1ccc(CCl)cc1`, for which the melting point lay within 125 to 126 °C.
Consider `CCCCCCC(C)(C)c1cc(OC)c(C2C(O)[C@]3(C)CC[C@H]2C3(C)C)c(OC)c1` (stereo partly drawn), for which the melting point lay in the range of 96 to 98 °C.
The value for `CCNC(=O)n1nc(Oc2ncc(C(F)(F)F)cc2Cl)cc1CC` was 85 to 86 °C; that for `Cc1nc(-c2cccc(C(F)(F)F)c2)ccc1CO` was 73 to 75 °C.
The value for `O=C1c2ccccc2CN1CCSc1ccncc1` was 86 to 87 °C.
Turning to `O=C1COCC(=O)N1CCCCCCN1CCCCC1`, the melting point fell in the range of 121 to 122 °C.
`CCCCCCCCCCCCC1(Cc2cc(N=Nc3ccc([N+](=O)[O-])cc3[N+](=O)[O-])ccc2O)COCCOCC(C)(C)COCCOC1`: the melting point was 64 to 65 °C.
The value for `Cc1oc(=O)c(Nc2ccc([N+](=O)[O-])cc2)nc1Cl` was 230 to 234 °C; that for `COc1ccc(OCc2c(C)cncc2C)c2[nH]c(C3CC3)nc12` was 152 to 155 °C; that for `COc1cccc2cc(CNCCNC(=O)C34CC5CC(CC3C5)C4)oc12` was 103 to 107 °C.
